Data as given in the supplement of paper PMC10307832.

Columns and labels:
Test in all cases: relative viability (nuclei count vs DMSO), 5 days (fraction); higher = more cells survive
XMD13-2 + Navitoclax = compound: C1CC1C(=O)NC2=NNC3=C2C=CC(=C3)C4=CC(=CC=C4)C(=O)NC5CC5 [XMD13-2] + CC1(C)CCC(c2ccc(Cl)cc2)=C(CN2CCN(c3ccc(C(=O)NS(=O)(=O)c4ccc(N[C@H](CCN5CCOCC5)CSc5ccccc5)c(S(=O)(=O)C(F)(F)F)c4)cc3)CC2)C1 [Navitoclax] (partner 0.5 µM)
In short: (§1)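 Lung cancer cell lines in 1536-well plates got either a single drug or a fixed anchor-drug dose together with five library-drug doses (not always all listed) in √10 steps, by pin tool, on the day after seeding. Nuclei were counted after 5 days, and relative viability is the treated-to-vehicle ratio of nuclei counts. Values are medians of duplicate plates.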

XMD13-2 + Tozasertib = compound: C1CC1C(=O)NC2=NNC3=C2C=CC(=C3)C4=CC(=CC=C4)C(=O)NC5CC5 [XMD13-2] + Cc1cc(Nc2cc(N3CCN(C)CC3)nc(Sc3ccc(NC(=O)C4CC4)cc3)n2)n[nH]1 [Tozasertib] (partner 0.1 µM)
In short: as §1

ALW-II-49-7 + OSI-027 = compound: Cc1ccc(C(=O)Nc2cccc(C(F)(F)F)c2)cc1Nc1cncc(C(N)=O)c1 [ALW-II-49-7] + COc1cccc2cc(-c3nc([C@H]4CC[C@H](C(=O)O)CC4)n4ncnc(N)c34)[nH]c12 [OSI-027] (partner 0.5 µM)
In short: as §1

Dasatinib + AZD7762 = compound: Cc1nc(Nc2ncc(C(=O)Nc3c(C)cccc3Cl)s2)cc(N2CCN(CCO)CC2)n1 [Dasatinib] + NC(=O)Nc1cc(-c2cccc(F)c2)sc1C(=O)N[C@H]1CCCNC1 [AZD7762] (partner 0.2 µM)
In short: as §1

Cell Line | relative viability (XMD13-2 + Navitoclax; first compound 0.05 µM) | relative viability (XMD13-2 + Navitoclax; first compound 0.1581 µM) | relative viability (XMD13-2 + Navitoclax; first compound 0.5 µM) | relative viability (XMD13-2 + Navitoclax; first compound 1.581 µM) | relative viability (XMD13-2 + Navitoclax; first compound 5 µM) | relative viability (XMD13-2 + Tozasertib; first compound 0.05 µM) | relative viability (XMD13-2 + Tozasertib; first compound 0.1581 µM) | relative viability (XMD13-2 + Tozasertib; first compound 0.5 µM) | relative viability (XMD13-2 + Tozasertib; first compound 1.581 µM) | relative viability (XMD13-2 + Tozasertib; first compound 5 µM) | relative viability (ALW-II-49-7 + OSI-027; first compound 0.08 µM) | relative viability (ALW-II-49-7 + OSI-027; first compound 0.253 µM) | relative viability (ALW-II-49-7 + OSI-027; first compound 0.8 µM) | relative viability (ALW-II-49-7 + OSI-027; first compound 2.53 µM) | relative viability (ALW-II-49-7 + OSI-027; first compound 8 µM) | relative viability (Dasatinib + AZD7762; first compound 0.005 µM) | relative viability (Dasatinib + AZD7762; first compound 0.01581 µM) | relative viability (Dasatinib + AZD7762; first compound 0.05 µM) | relative viability (Dasatinib + AZD7762; first compound 0.1581 µM) | relative viability (Dasatinib + AZD7762; first compound 0.5 µM)
HCC-827 | 0.962 | 1.02 | 1 | 0.978 | 0.898 | 0.428 | 0.409 | 0.427 | 0.401 | 0.386 | 0.737 | 0.696 | 0.714 | 0.621 | 0.64 | 0.215 | 0.176 | 0.127 | 0.114 | 0.146
HOP-62 | 1.18 | 1.07 | 1.19 | 1.05 | 1.04 | 0.363 | 0.418 | 0.399 | 0.393 | 0.271 | 0.768 | 0.96 | 0.875 | 0.721 | 0.608 | 0.481 | 0.585 | 0.626 | 0.268 | 0.167
LC-2-ad | 0.772 | 0.503 | 0.519 | 0.368 | 0.375 | 0.519 | 0.528 | 0.436 | 0.41 | 0.45 | 0.733 | 0.843 | 0.783 | 0.73 | 0.771 | 0.871 | 0.727 | 0.599 | 0.337 | 0.268
LCLC-97TM1 | 0.475 | 0.456 | 0.278 | 0.409 | 0.227 | 0.235 | 0.198 | 0.209 | 0.194 | 0.104 | 0.514 | 0.46 | 0.466 | 0.527 | 0.379 | 0.161 | 0.274 | 0.218 | 0.17 | 0.0853
LK-2 | 1.19 | 0.843 | 0.905 | 0.957 | 0.738 | 0.187 | 0.169 | 0.173 | 0.18 | 0.149 | 0.202 | 0.205 | 0.213 | – | 0.186 | 0.31 | – | 0.191 | 0.0866 | 0.129
LOU-NH91 | 0.752 | 0.688 | 0.715 | 0.696 | 0.769 | 0.724 | 0.688 | 0.734 | 0.644 | 0.638 | 0.666 | 0.733 | 0.684 | 0.729 | 0.676 | 0.747 | 0.638 | 0.623 | 0.469 | 0.384
LU99A | 0.927 | 0.741 | 0.811 | 0.805 | 0.523 | 0.301 | 0.294 | 0.287 | 0.263 | 0.272 | 0.293 | 0.288 | 0.282 | 0.282 | 0.294 | 0.399 | 0.35 | 0.277 | 0.215 | 0.171
LXF-289 | 0.965 | 0.956 | 0.988 | 0.914 | 0.93 | 0.232 | 0.195 | 0.194 | 0.208 | 0.177 | 0.697 | 0.901 | 0.846 | 0.81 | 0.735 | 1.14 | 1.12 | 1.09 | 0.371 | 0.184
